This is an account of results in US20190090458A1, “DEVICE FOR OBTAINING AGE/SIZE-MATCHED NEMATODES AND METHODS OF USE” (University of Alaska, Fairbanks, priority 2017, published 2019).

Test [1] relates to C. elegans. Description: Pharyngeal pump rate. The test is classed as in vivo. The conditions noted are these: 100 μM FUDR in NGM; days 6 and 8 of adulthood; p<0.001. As for the experimental part: (§1) The three groups tested were separated by: 1) individual picking, wherein nematodes were selected and transferred manually using a platinum loop; 2) the chemical treatment fluorodeoxyuridine (FUDR), wherein 100 mg/mL FUDR was added to the NGM media to a final concentration of 100 μM to prevent any progeny production, and then the nematodes were transferred every other day to a fresh NGM plate to avoid food depletion; and, 3) the device of Example 1.
The ability of C. elegans' pharyngeal muscles to pump declines with age and is another biomarker of healthspan. To determine if the present filter membrane device influenced the nematodes' pharyngeal pump rate, the three treatment groups were compared on days 2, 4, 6, and 8 of adulthood (n=8 to 10 per group). The grinder movement of the nematode's terminal pharyngeal bulb was visually counted under a stereomicroscope at a 600× final magnification for 1 minute, wherein a statistical analysis with a one-way ANOVA with α=0.05 and Bonferroni post-tests with α=0.05 was performed.

For test [2], the system named is C. elegans. The test can be described thus: Gentle touch response (anterior and posterior). The conditions noted are these: 100 μM FUDR in NGM; any day of testing (days 2, 4, 6, 8); p>0.4. It counts as in vivo. As for the experimental part:
as §1
Response to mechanical stimulus is a physiological marker to assess aging or general health; thus, the impact of different transfer methods on both the anterior and the posterior gentle touch responses were tested. Responses to a gentle touch were compared between the three treatment groups, wherein the assay was performed based on the methods described by Calixto et al. Enhanced neuronal RNAi in C. elegans using SID-1. Nature Methods. 7 (7), 554-559 (2010). The anterior and posterior touch response was recorded by gently stroking an eyelash pick perpendicularly across the tail or the head (5× each, alternating head and tail) of the animals. Any movement in the opposite direction of the stroke was scored as 1 point on a scale of 0 to 5 for both the anterior and the posterior response. A statistical analysis with a one-way ANOVA with α=0.05 and Bonferroni post-tests with α=0.05 was conducted using the recorded scored.

In test [3] the test system is C. elegans. The test can be described thus: Motility assay (motility class scoring). It counts as in vivo. The conditions noted are these: 100 μM FUDR in NGM; days 2, 4, 6 and 8 of adulthood; p>0.05. As for the experimental part:
as §1
In C. elegans the normal sinusoidal movement (i.e., motility) declines with age and is a marker of overall health. To determine if the present device influenced motility, motility scores were compared for pick, FUDR, and present filter membrane device treatment groups on days 2, 4, 6, and 8 of adulthood. The mobility assay was performed as disclosed by Hendon et al. Stochastic and genetic factors influence tissue-specific decline in ageing C. elegans. Nature. 419 (6909), 808-814 (2002). The nematodes were assigned a motility score and assigned to a class (A, B, or C). Class A individuals move spontaneously in a normal, sinusoidal pattern. Class B individuals move in markedly non-sinusoidal movements and may require prodding to encourage movement. Class C individuals move their head and/or tail in response to prodding but are unable to move across the agar.

The test system of another test is sod-3::gfp. The test can be described thus: sod-3::gfp fluorescent reporter stress response assay. The test is classed as in vivo, C. elegans. The conditions noted are these: 100 μM paraquat, positive control; strain CF1553; p<0.05. The procedure: Three commonly used fluorescent reporter assays were performed to detect potential markers of stress: a DAF-16::GFP translocation into the nuclei of cells in a strain [TJ356-zIs356 (pDAF-16::DAF-16-GFP;rol-6)]; an hsp-16.2 expression [TJ375-gpls 1 (hsp-16.2p::GFP)]; and a sod-3 expression [CF1553-muIs84([pAD76]sod-3p::GFP+rol-6[su1006])]. Henderson, S. T., Johnson, T. E. daf-16 integrates developmental and environmental inputs to mediate aging in the nematode Caenorhabditis elegans. Current Biology. 11 (24), 1975-1980 (2001); Rea, S. L., Wu, D., Cypser, J. R., Vaupel, J. W., Johnson, T. E. A stress-sensitive reporter predicts longevity in isogenic populations of Caenorhabditis elegans. Nature Genetics. 37 (8), 894-898 (2005); and, Libina, N., Berman, J. R., Kenyon, C. […]
At day 3 of adulthood, the nematodes were harvested with an eyelash pick and mounted to a coverslip with 1 μL of a 36% poloxamer 407 surfactant solution to immobilize the nematodes. […] Differences in the fluorescent localization between the three groups was recorded and results compared using an ordinal logistics statistical model in statistical analysis software (DAF-16::GFP assay) and for the hsp-16.2 and the sod-3 expression assays, a one-way ANOVA with α=0.05 and Tukey's post hoc tests with α=0.05 was used to compare the total fluorescence of the head region. […]

As to `O=c1[nH]c(=O)n([C@H]2C[C@H](O)[C@@H](CO)O2)cc1F` [FUDR, 5-fluorodeoxyuridine], the “pharyngeal pump rate, FUDR versus picking group” value in the test with C. elegans [1] is on record as “significant difference”. The “anterior and posterior gentle touch response compared with pick and device groups” value in the test with C. elegans [2] is reported as “no statistically significant difference”. The “motility class distribution compared with pick and device groups” value with C. elegans [3] is “no difference”.
Turning to `C[n+]1ccc(-c2cc[n+](C)cc2)cc1` [paraquat], the “SOD-3 expression (sod-3::gfp fluorescence of head region) versus pick and device groups” value in the test on sod-3::gfp is on record as “high expression of sod-3::gfp”.
